We go through 14 compounds from PubChem BioAssay (NCI).

“And” between values parts separate entries of the source, which are not always exact repeats. Equal values may be shown once.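 Compound exposure: 48 hours, 5 concentrations, 96-well plates. GI50: concentration for 50% inhibition of growth. The concentration for full growth arrest is given as TGI.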 Where only a bound is given, the exact number is not on record here.

Common to all, as to test: growth of human tumour cells (NCI), 48 h
Assay [1] concerns SK-MEL-2 melanoma.
In assay [2] the test system is RPMI-8226 leukemia.
In assay [3] the test system is SF-295 CNS.
For assay [4], the system named is SK-OV-3 ovarian.
Assay [5] relates to UACC-62 melanoma.
For assay [6], the system named is SK-MEL-28 melanoma.
Assay [7] has as its system MALME-3M melanoma.
Assay [8] relates to OVCAR-3 ovarian.
Assay [9] has as its system SNB-19 CNS.
The test system of assay [10] is CCRF-CEM leukemia.

As for `O=[N+]([O-])c1cc2c(ccc3ccccc32)o1`, the GI50 in assay [1] is 0.202 µM; in assay [2], 1.13 µM; in [3], 0.347 µM; in assay [4], 0.571 µM; in assay [5], 0.426 µM; in [6] it was 0.21 µM. The GI50 in assay [7] is 0.175 µM; in [8] it was 1.31 µM; in [9], 0.966 µM; in assay [10] it was 0.47 µM. Further, the TGI was found to be 0.416 µM in [1]; 6.81 µM in [2]; 3.34 µM in assay [3]; 6.25 µM in assay [4]; 1.72 µM in assay [5]; 0.585 µM in assay [6]. For the same compound, the TGI was 0.368 µM in assay [7], 4.64 µM in assay [8], more than 35.4 µM in [9] and more than 35.6 µM in assay [10].
For `CC(=O)CC(=O)Nc1ccc(OS(N)(=O)=O)cc1`, the TGI in assay [1], in [2], in [3], in [4], in [5] and in [6] was more than 100 µM in each case. For the same compound, the TGI in assay [7], in [8], in assay [9] and in assay [10] was more than 100 µM each time.
On to `CCN(CC)CCNc1ccc2nc(C)n3c4ccc(OC)cc4c(=O)c1c23`, for which the TGI was found to be 28 µM in [1]; 5.34 µM in assay [2]; 7.82 µM in [3]; 19.5 µM in [4]; 20 µM in assay [5]; 25.9 µM in assay [6]. In addition, the TGI in assay [7] worked out at 21.7 µM; in assay [8] it was 19.8 µM; in assay [9] it was 13.7 µM; in [10], 1.19 µM.
For the compound `O=S(=O)([O-])c1ccc(C=Nc2ccccc2)c([O-])c1.O=S(=O)([O-])c1ccc(C=Nc2ccccc2)c([O-])c1.[Co+2]`, the GI50 in assay [1] was 77.8 µM; in assay [2], more than 100 µM; in assay [3], more than 100 µM; in assay [4] it was more than 100 µM; in assay [5] it was 3.96 µM; in assay [6], more than 100 µM. Also, the GI50 in assay [7] is 99.1 µM; in [8], more than 100 µM; in [9] it was more than 100 µM; in assay [10] it was 11.7 µM. Moreover, the TGI in assay [1], in assay [2], in assay [3], in assay [4], in assay [5] and in assay [6] was more than 100 µM each time. The TGI in assay [7], in assay [8], in assay [9] and in assay [10] was more than 100 µM in each case.
Consider `CCc1n(Cc2ccc3ccccc3c2)cc[n+]1Cc1ccc2ccccc2c1`, for which the GI50 is 0.534 µM in assay [1]; 0.376 µM in assay [2]; 1.43 µM in assay [3]; 1.46 µM in [4]; 0.507 µM in [5]; 0.581 µM in assay [6]. Further, the GI50 was 0.247 µM in [7], 0.466 µM in [8], 0.492 µM in [9] and 0.922 µM in assay [10]. Also, the TGI was 2.14 µM in [1]; 1.8 µM in assay [2]; 4 µM in assay [3]; 5.73 µM in [4]; 2 µM in assay [5]; 2.06 µM in [6]. Moreover, the TGI in [7] came to 1.3 µM; in assay [8], 1.74 µM; in assay [9], 1.82 µM; in [10] it was 4.34 µM.
Consider `COC(=O)N1C=CC2=C(C)C3Nc4ccccc4C3C(C)=C2C1` (stereo unspecified), for which the TGI in assay [1] was 2.95 µM; in [2], 5.87 µM; in [3], 17.9 µM; in [4], 8.71 µM; in [5] it was 6.89 µM; in assay [6], more than 100 µM. Besides, the TGI in assay [7] was 13.1 µM; in [8] it was 3.69 µM; in assay [9], more than 100 µM; in assay [10], 15.9 µM.
Take `CCOC(=O)N1C/C(=C\c2ccc(N(C)C)cc2)C(=O)/C(=C/c2ccc(N(C)C)cc2)C1`: the TGI in assay [1], in [2], in [3], in assay [4], in assay [5] and in assay [6] was more than 100 µM throughout. Also, the TGI in [7], in assay [8], in assay [9] and in [10] was more than 100 µM in each case.
As for `O=C1C=CC(=O)N1c1ccc2ccccc2c1`, the GI50 in assay [1] is 17.9 µM; in assay [2] it was 2 µM; in assay [3] it was more than 100 µM; in assay [4], 27.4 µM; in assay [5] it was 16.1 µM; in assay [6] it was 16.8 µM. For the same compound, the GI50 is 2.98 µM in [7], 3.23 µM in [8], 38.4 µM in [9] and 2.09 µM in assay [10]. Also, the TGI in assay [1] is 35.3 µM; in assay [2], 4.97 µM; in assay [3], more than 100 µM; in assay [4], 78.5 µM; in assay [5] it was 29.8 µM; in assay [6] it was 34 µM. The TGI in assay [7] was 8.19 µM; in [8] it was 8.75 µM; in [9], more than 100 µM; in assay [10], 7.94 µM.
Take `COc1ccc(-c2cc(-c3ccco3)c(C#N)c(=O)n2C2OC(COC(C)=O)C(OC(C)=O)C(OC(C)=O)C2OC(C)=O)cc1` (stereo unspecified): the GI50 was > 100 µM and 14.5 µM in assay [1]; > 100 µM and 25.7 µM in assay [3]; > 100 µM and 28.1 µM in assay [4]; > 100 µM and 17.2 µM in assay [5]; > 100 µM and 26.7 µM in [6]; > 100 µM and 25 µM in assay [7]. Further, the GI50 in assay [8] was > 100 µM and 18.1 µM; in assay [9], > 100 µM and 42.8 µM. The TGI in assay [1] is > 100 µM and 50.8 µM; in assay [2], more than 100 µM; in assay [3], more than 100 µM; in [4] it was > 100 µM and 64.5 µM; in assay [5], more than 100 µM; in assay [6] it was more than 100 µM. The TGI was more than 100 µM in assay [7]; > 100 µM and 44.3 µM in [8]; more than 100 µM in [9]; more than 100 µM in assay [10].
On to `COc1cc2c(c(OC)c1OC)[C@@H]1CCCCC[C@@H]1CCC2=O`, for which the TGI in [1] was more than 100 µM; in [2], more than 64.1 µM; in assay [3], more than 100 µM; in assay [4], more than 100 µM; in assay [5], more than 100 µM; in [6] it was more than 100 µM. Also, the TGI in assay [7] was more than 100 µM; in assay [8] it was more than 100 µM; in assay [9] it was more than 100 µM; in [10], more than 77.8 µM.
For `O=C(Nc1ccc(Br)cc1)c1cc(Br)ccc1O`, the GI50 in [1] was 0.278 µM and 1.74 µM; in [2], 0.483 µM and 0.244 µM; in assay [3], 0.712 µM and 1.39 µM; in [4], 0.747 µM and 1.8 µM; in [5], 0.235 µM and 0.371 µM; in [6], 0.314 µM and 1.44 µM. In addition, the GI50 is 0.284 µM and 0.48 µM in [7]; 0.314 µM and 0.535 µM in [8]; 0.339 µM and 1 µM in assay [9]; 0.862 µM and 0.752 µM in [10]. Besides, the TGI in assay [1] was 1.25 µM and 5 µM; in assay [2], 0.758 µM; in assay [3], 2.3 µM and 4.08 µM; in assay [5], 1.07 µM and 2.25 µM; in [6] it was 2.17 µM and 5.14 µM; in [7], 1.57 µM and 4.2 µM. Further, the TGI in assay [8] was 7.81 µM and 7.14 µM; in assay [9] it was more than 93.1 µM.
Regarding `COc1cc(Br)c(/C=N/N=C(\N)NO)cc1OC`, the TGI in [1] is more than 100 µM; in assay [2] it was more than 100 µM; in assay [3], more than 100 µM; in [4] it was 68.8 µM; in assay [5], 32.3 µM; in [6] it was more than 100 µM. Also, the TGI was 60.2 µM in assay [7], more than 100 µM in assay [8], more than 100 µM in assay [9] and more than 100 µM in [10].
Take `CCOC(=O)c1ccc(N[C@@H]2c3cc4c(cc3C(c3cc(OC)c(O)c(OC)c3)[C@H]3C(=O)OCC32)OCO4)cc1` (stereo partly specified): the TGI in assay [1] was 6.27 µM; in [2], 7.08 µM; in assay [3], 0.904 µM and 2.2 µM; in [4], 5.16 µM; in assay [5], 4.08 µM; in assay [6], 8.59 µM. Also, the TGI is 2.95 µM in assay [7]; 6.71 µM in [8]; 22.2 µM in [9]; 0.925 µM and 1.81 µM in [10]. Moreover, the GI50 in assay [3] was 0.238 µM and 0.241 µM; in assay [4] it was 0.37 µM; in assay [5], 0.382 µM; in assay [6], 0.935 µM; in [7], 0.343 µM; in assay [9] it was 0.261 µM. In addition, in assay [10], the GI50 is 0.116 µM.
Regarding `CC(C)C[C@H](NC(=O)[C@@H](N)Cc1cccc2ccccc12)B(O)O`, the GI50 in [1] is 0.598 µM; in assay [3], 0.313 µM; in assay [4] it was 2 µM; in [5] it was 0.425 µM; in assay [6], 0.186 µM; in assay [7], 0.156 µM. The GI50 in assay [8] was 0.187 µM; in assay [9], 0.11 µM; in [10] it was 0.0724 µM and < 0.01 µM. The TGI in assay [2] was less than 0.0272 µM; in assay [5], 1.28 µM and 0.148 µM; in [7] it was 0.426 µM and 0.0707 µM; in [9] it was 50 µM and > 100 µM.
